One experiment addresses JNK1 (Homo sapiens, UniProt P45983). Nature of the experiment: JNK1 inhibition. It is filed as biochemical. The note with it: read-out: inhibition (IC50) with regard to JNK1.
Experiment [1] deals with IL-2 release by (PMA+Ionomycin)-stimulated Jurkat cells. In words: IL-2 release assay (IL-2 ELISA). Type of experiment: cell-based. Conditions: Homo sapiens; PMA + Ionomycine stimulated Jurkat cells. On the procedure:
The Ability of the Compounds According to Formula I to Modulate the Inflammatory Response by Inhibiting the Release of IL-2 was Assessed Using the Following Protocol
JNK pathway activation triggers the production of inflammatory cytokines such as IL-2. JNK can be activated by external stimuli such as PMA and Ionomycine and IL-2 production can be measured via an IL-2 ELISA test. Comparative measurements with and without the compounds of the invention according to the following protocol measure the ability of the compounds to prevent to stress-mediated IL-2 release.
Jurkat cells, a human T cell leukemia cell line (American Type Culture Collection # TIB 152) were cultured in RPMI 1640 medium (Gibco, BRL) supplemented with 10% of […] fetal calf serum (FCS), Glutamine and Penstrep. The cell suspension in the medium is diluted to give 2.10^6 cells/mL. The cells were plated (2.10^5 cells/well) on a 96-well plate containing different concentrations of a compound according to formula I (final concentration of compounds, 10, 3, 1, 0.3, 0.1 μM). This mixture is incubated 30 minutes at 37° C. in a humidified CO2 atmosphere. Cells were then treated with 10 μl PMA (Phorbolmyristate-13 Acetate-12)+Ionomycine (0.1 μM and 1 μM final concentration) in all wells except negative control. In wells without compounds, 10 μl of RPMI 2% DMSO (=0.1% final) is added. Cells are incubated 24 hours at 37° C. and then the supernatant harvested (freeze at −20° C. if not used the same day) prior to performing IL-2 ELISA test on the supernatant.
IL-2 release into the medium by (PMA+Iononomycin)-stimulated Jurkat cells, in presence or absence of test compounds may be assayed by ELISA. Following the procedure described below.
Monoclonal anti-human IL-2 antibody (MAB602) (capture), biotinylated anti-human IL-2 antibody (BAF202) (detection) and recombinant human IL-2 (202-IL-010) (standard) from From R&D Systems are used. […]
• 1. […] Optical density is measured using a microtiter plate reader set to 450 nm with correction at 570 nm.

A value given as a limit tells only on which side of the number the result lay.

Sequence of JNK1 (P45983 whole entry, species assumed): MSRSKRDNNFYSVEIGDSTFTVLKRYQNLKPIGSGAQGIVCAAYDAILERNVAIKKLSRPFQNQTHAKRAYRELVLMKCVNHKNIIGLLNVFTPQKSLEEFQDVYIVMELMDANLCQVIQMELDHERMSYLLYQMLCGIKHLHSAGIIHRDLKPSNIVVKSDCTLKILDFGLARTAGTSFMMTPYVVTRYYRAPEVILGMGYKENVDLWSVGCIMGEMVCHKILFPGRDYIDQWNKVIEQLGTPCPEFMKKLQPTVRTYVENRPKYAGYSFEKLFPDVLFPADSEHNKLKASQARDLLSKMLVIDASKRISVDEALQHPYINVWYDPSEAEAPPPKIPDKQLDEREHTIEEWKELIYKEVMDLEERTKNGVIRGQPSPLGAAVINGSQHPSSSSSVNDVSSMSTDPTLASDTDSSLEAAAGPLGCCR

For orientation: IC50 means the concentration needed to halve the response being measured. Regarding `COc1cccc(C(=O)NCc2ccc(S(=O)(=O)N3CCC(NCc4ccc(C(F)(F)F)cc4)CC3)s2)c1` [Example 1, 3-Methoxy-N-{[5-({4-[(4-trifluoromethylbenzyl)amino]piperidin-1-yl}sulfonyl)thien-2-yl]methyl}benzamide], the IC50 at JNK1 is 100 to 700 nM; in experiment [1], under 800 nM.

The values are drawn from patent publication US7544700B2, “Pharmaceutically active sulfonamide derivatives bearing both lipophilic and ionisable moieties as inhibitors of protein JunKinases” (Laboratoires Serono SA, priority 2000, dated 2009).
